Data on 33 molecules can be found in US9233971B2, “Lipomacrocycles and uses thereof” (priority 2010, dated 2016).

For assay [1], the system named is SSB mRNA in liver. The assay can be described thus: In vivo gene knockdown, liposomal siRNA formulation (Example 3), SSB siRNA. As to conditions: for Targeted mRNA remain in liver: liposomal formulation, SSB siRNA, dose 3.2 mg/kg intravenously, CD1 mice, liver harvested three days later, real-time RT-PCR, GAPDH reference. Further details: species or system CD1 mice. As to the method: Each liposome formulation was made by mixing lipids of each lipomacrocycle compound (Table 1) combined with DSPC, DMG-PEG 2K, and cholesterol at the weight ratio of 3.85:0.42:0.21:0.79 in ethanol and siRNA in water. Then 5% dextrose water was added in each formulation before dosing to mice.
(§1) All procedures used in animal studies conducted were approved by the Institutional Animal Care and Use Committee (IACUC) and were consistent with local, state and federal regulations as applicable. Mice, rats, and rabbits received siRNA formulations intravenously at dose volume of 0.2 ml, 1 ml, or 10 ml, respectively. Animals were sacrificed 2 to 7 days later. Tissues were harvested and mRNA was isolated with Turbocapture kit (Qiagen) for analyzing change of gene expression with real-time RT-PCR method (SensiMix SYBR One-Step Kit, Bioline). Serum was harvested for analyzing blood chemistry.
(§2) CD1 mice were dosed with lipid particle (Table 1) or liposome (Table 2) siRNA formulation intravenousely and the different tissues were harvested three days later. The gene expression was analyzed with real-time RT-PCR method (for liver, GAPDH as reference gene; for lung and bone marrow, GAPDG and β-actin as reference genes).
Background: In qPCR the cycle at which signal appears reflects the starting amount.

Assay [2] deals with SSB mRNA in liver. The assay can be described thus: In vivo gene knockdown, lipid particle siRNA formulation (Example 4), SSB siRNA. As to conditions: lipid particles, CD1 mice, liver harvested three days later, real-time RT-PCR, GAPDH reference. As to the method:
(§3) Lipid Particle formulations were made by first mixed siRNA in an aqueous solution with DOTMA in organic solvent to produce a water-insoluble precipitate. After isolating and drying the precipitate, the precipitate was dissolved in chloroform and further mixed with other lipids as following: Each lipid particle formulation was consisting of 1 part DOTMA+siRNA complex/5 parts any lipomacrocycle compound (Table 1)/1.5 parts N 6-tetrakis (3-aminopropyl)-1,3-propanediamine cholesteryl carbamate/2.2 parts 1,2-dilinoleoyl-sn-glycero-3-phosphoethanolamine/10.08 parts cholesterol PEG-660/4.32 parts cholesterol PEG-660/0.6 parts cholesterol (weight/weight). All the components were dissolved in chloroform and mixed together. Then, the mixtures were dried overnight in Speedvac. The dried formulations were hydrated by adding in certain amount of 5% dextrose water before dosing to animals intravenously.
as §1, §2

The test system of assay [3] is APOB mRNA in liver. The assay can be described thus: In vivo gene knockdown, lipid particle siRNA formulation (Example 4), APOB siRNA. Further details: species or system CD1 mice. Particulars: for Targeted mRNA remain in liver: lipid particles, APOB siRNA, CD1 mice, liver harvested three days later, real-time RT-PCR, GAPDH reference. The method, then: as §3, §1, §2

Take `CCCCCCCCCCC(O)CN(CCN(CCN(CC(O)CCCCCCCCCC)CC(O)CCCCCCCCCC)CCN(CC(O)CCCCCCCCCC)CC(O)CCCCCCCCCC)CC(O)CCCCCCCCCC` (stereo not drawn) [Compound T5C4]: in assay [1], the “Targeted mRNA remain in liver” value amounted to 0.41.

In the case of `CCCCCCCCCCCCCCOCC(O)CN1CCN(Cc2ccccc2)CCN(CC(O)COCCCCCCCCCCCCCC)CCN(Cc2ccccc2)CC1` (stereo not drawn) [Compound M6C1], the results for the “Targeted mRNA remain in liver” value in assay [2] (dose 3.2 mg/kg intravenously) and in assay [1] were 0.64 and 0.98, respectively. In the case of `CCCCCCCCCCCCCCC(O)CN(CCCN(CC(O)CCCCCCCCCCCCCC)CC(O)CCCCCCCCCCCCCC)CCCN(CC(O)CCCCCCCCCCCCCC)CC(O)CCCCCCCCCCCCCC` (stereo not drawn) [Compound D1C7], in assay [1], the “Targeted mRNA remain in liver” value is on record as 0.52. `CCCCCCCCCCCCOCC(O)CN1CCN(CC(O)COCCCCCCCCCCCC)CCN(CC(O)COCCCCCCCCCCCC)CCN(CC(O)COCCCCCCCCCCCC)CCN(CC(O)COCCCCCCCCCCCC)CCN(CC(O)COCCCCCCCCCCCC)CC1` (stereo not drawn) [Compound M10C8]: the “Targeted mRNA remain in liver” value in assay [3] (dose 1 mg/kg intravenously) turned out to be 0.06. Moreover, the “performance of the lipid molecules, best compounds” value in assay [3] (ranking based on the results of Table 1 (lipid particles, APOB and SSB siRNA)) is given as “best”.

Turning to `CCCCC(CC)COCC(O)CN(CCCN(CC(O)COCC(CC)CCCC)CC(O)COCC(CC)CCCC)CCCN(CC(O)COCC(CC)CCCC)CC(O)COCC(CC)CCCC` (stereo not drawn) [Compound D1C3], the “Targeted mRNA remain in liver” value in assay [1] amounted to 0.18. Same read-out and setting: with `CCCCCCCCCCCCCCC(O)CN(CCCN(CCCN(CC(O)CCCCCCCCCCCCCC)CC(O)CCCCCCCCCCCCCC)CCCN(CC(O)CCCCCCCCCCCCCC)CC(O)CCCCCCCCCCCCCC)CC(O)CCCCCCCCCCCCCC` (stereo not drawn) [TaC7] the figure was 0.33. `CCCCCCCCCCCCC(O)CN1CCN(Cc2ccccc2)CCN(CC(O)CCCCCCCCCCCC)CCN(Cc2ccccc2)CC1` (stereo not drawn) [Compound M6C6]: the “Targeted mRNA remain in liver” value in assay [1] is given as 0.8. In the case of `CCCCCCCCCCCCCCOCC(O)CN(CCCN(C)CCCN(CC(O)COCCCCCCCCCCCCCC)CC(O)COCCCCCCCCCCCCCC)CC(O)COCCCCCCCCCCCCCC` (stereo not drawn) [Compound B1C1], the “Targeted mRNA remain in liver” value in assay [3] (dose 0.8 mg/kg intravenously) is recorded as 0.82; in assay [1], 0.13. Turning to `CC(C)CCC[C@@H](C)[C@H]1CC[C@H]2[C@@H]3CC=C4C[C@@H](OC(=O)N5CCNCCNCCNCCNCCNCC5)CC[C@]4(C)[C@H]3CC[C@]12C` [Compound M10ch1], the “Targeted mRNA remain in liver” value in assay [3] (dose 3 mg/kg intravenously) turned out to be 0.39. In the case of `CC(C)CCC[C@@H](C)[C@H]1CC[C@H]2[C@@H]3CC=C4C[C@@H](OC(=O)NCCN(CCN)CCN)CC[C@]4(C)[C@H]3CC[C@]12C` [Compound T5ch1], the “Targeted mRNA remain in liver” value in assay [3] (dose 3 mg/kg intravenously) came to 0.39. Consider `CCCCCCCCCCCCCCOCC(O)CN1CCCN(CC(O)COCCCCCCCCCCCCCC)CCCN(CC(O)COCCCCCCCCCCCCCC)CCC1` (stereo not drawn) [Compound M9C1], for which the figures for the “Targeted mRNA remain in liver” value in assay [2] (dose 3.2 mg/kg intravenously) and in assay [1] were 0.2 and 0.3, respectively. Consider `CCCCCCCCCCCCCCC(O)CN(CCCN(CCCN(CC(O)CCCCCCCCCCCCCC)CC(O)CCCCCCCCCCCCCC)CC(O)CCCCCCCCCCCCCC)CCCN(CC(O)CCCCCCCCCCCCCC)CC(O)CCCCCCCCCCCCCC` (stereo not drawn) [NsC7], for which, in assay [1], the “Targeted mRNA remain in liver” value was 0.1.

Consider `CCCCC(CC)COCC(O)CN(CCCN(CCCCN(CCCN(CC(O)COCC(CC)CCCC)CC(O)COCC(CC)CCCC)CCCN(CC(O)COCC(CC)CCCC)CC(O)COCC(CC)CCCC)CCCN(CC(O)COCC(CC)CCCC)CC(O)COCC(CC)CCCC)CC(O)COCC(CC)CCCC` (stereo not drawn) [Compound T4C3], for which the “Targeted mRNA remain in liver” value in assay [1] was found to be 0.12. `CCCCCCCCCCC(O)CN(CCCN(CCCN(CC(O)CCCCCCCCCC)CC(O)CCCCCCCCCC)CCCN(CC(O)CCCCCCCCCC)CC(O)CCCCCCCCCC)CC(O)CCCCCCCCCC` (stereo not drawn) [TaC4]: in assay [1], the “Targeted mRNA remain in liver” value was 0.12. In the case of `CCCCCCCCCCC(O)CN1CCN(CC(O)CCCCCCCCCC)CCN(CC(O)CCCCCCCCCC)CCN(CC(O)CCCCCCCCCC)CCN(CC(O)CCCCCCCCCC)CCN(CC(O)CCCCCCCCCC)CC1` (stereo not drawn) [Compound M10C4], the “Targeted mRNA remain in liver” value in assay [2] (dose 3 mg/kg intravenously) came to 0.63. For the molecule `CCCCCCCCCCCCCCCCC(O)CN1CCN(Cc2ccccc2)CCN(CC(O)CCCCCCCCCCCCCCCC)CCN(CC(O)CCCCCCCCCCCCCCCC)CC1` (stereo not drawn) [Compound M1C5], in assay [1], the “Targeted mRNA remain in liver” value stood at 0.6. As for `CCCCC(CC)COCC(O)CN1CCN(CC(O)COCC(CC)CCCC)CCN(CC(O)COCC(CC)CCCC)CCN(CC(O)COCC(CC)CCCC)CCN(CC(O)COCC(CC)CCCC)CCN(CC(O)COCC(CC)CCCC)CC1` (stereo not drawn) [Compound M10C3], the “Targeted mRNA remain in liver” value in assay [2] (dose 3 mg/kg intravenously) is given as 0.43. `CCCCCCCCCCCCCCOCC(O)CN(CCCN(CCCN(CC(O)COCCCCCCCCCCCCCC)CC(O)COCCCCCCCCCCCCCC)CCCN(CC(O)COCCCCCCCCCCCCCC)CC(O)COCCCCCCCCCCCCCC)CC(O)COCCCCCCCCCCCCCC` (stereo not drawn) [TaC1]: the “Targeted mRNA remain in liver” value in assay [3] (dose 0.8 mg/kg intravenously) is reported as 0.81; in assay [1] it was 0.1. Consider `CCCCC(CC)COCC(O)CN(CCN(CCN(CC(O)COCC(CC)CCCC)CC(O)COCC(CC)CCCC)CCN(CC(O)COCC(CC)CCCC)CC(O)COCC(CC)CCCC)CC(O)COCC(CC)CCCC` (stereo not drawn) [Compound T5C3], for which, in assay [1], the “Targeted mRNA remain in liver” value worked out at 0.43.

For `CCCCCCCCCCCCC(O)CN(CCCN1CCN(CCCN(CC(O)CCCCCCCCCCCC)CC(O)CCCCCCCCCCCC)CC1)CC(O)CCCCCCCCCCCC` (stereo not drawn) [Compound B2C6], the “Targeted mRNA remain in liver” value in assay [1] amounted to 0.08. Further, the “performance of the lipid molecules, best performing compounds” value in assay [1] (ranking based on the results of Table 2 (liposomal formulation, SSB and APOB siRNA)) is on record as “best performing”.

As to `CCCCC(CC)COCC(O)CN(CCN(C)CCN(CC(O)COCC(CC)CCCC)CC(O)COCC(CC)CCCC)CC(O)COCC(CC)CCCC` (stereo not drawn) [MdC3], the “Targeted mRNA remain in liver” value in assay [1] is on record as 0.24. Take `CCCCCCCCCCOCC(O)CN(CCCN(CCCN(CC(O)COCCCCCCCCCC)CC(O)COCCCCCCCCCC)CCCN(CC(O)COCCCCCCCCCC)CC(O)COCCCCCCCCCC)CC(O)COCCCCCCCCCC` (stereo not drawn) [TaC2]: the “Targeted mRNA remain in liver” value in assay [1] is recorded as 0.13.

With `CCCCCCCCCCOCC(O)CN(CCCN(C)CCCN(CC(O)COCCCCCCCCCC)CC(O)COCCCCCCCCCC)CC(O)COCCCCCCCCCC` (stereo not drawn) [Compound B1C2], the “Targeted mRNA remain in liver” value in assay [1] stood at 0.68.

On to `CCCCCCCCCCCCC(O)CN(CCCN(CCCN(CC(O)CCCCCCCCCCCC)CC(O)CCCCCCCCCCCC)CCCN(CC(O)CCCCCCCCCCCC)CC(O)CCCCCCCCCCCC)CC(O)CCCCCCCCCCCC` (stereo not drawn) [TaC6], for which the “Targeted mRNA remain in liver” value in assay [1] is listed as 0.17. On the same count and under the same terms, the result for `CCCCCCCCCCCCC(O)CN(CCN(C)CCN(CC(O)CCCCCCCCCCCC)CC(O)CCCCCCCCCCCC)CC(O)CCCCCCCCCCCC` (stereo not drawn) [MdC6] reads 1.1; that for `CCCCCCCCCCCCCCC(O)CN(CCN(C)CCN(CC(O)CCCCCCCCCCCCCC)CC(O)CCCCCCCCCCCCCC)CC(O)CCCCCCCCCCCCCC` (stereo not drawn) [MdC7], 0.25.

As for `CCCCCCCCCCCCCCOCC(O)CN(CCN(CCN(CC(O)COCCCCCCCCCCCCCC)CC(O)COCCCCCCCCCCCCCC)CCN(CC(O)COCCCCCCCCCCCCCC)CC(O)COCCCCCCCCCCCCCC)CC(O)COCCCCCCCCCCCCCC` (stereo not drawn) [Compound T5C1], in assay [1], the “Targeted mRNA remain in liver” value came to 0.13. Same read-out and setting: the result for `CCCCC(CC)COCC(O)CN1CCN(Cc2ccccc2)CCN(CC(O)COCC(CC)CCCC)CCN(CC(O)COCC(CC)CCCC)CC1` (stereo not drawn) [Compound M1C3] reads 0.64; that for `CCCCCCCCCCOCC(O)CN(CCCN1CCN(CCCN(CC(O)COCCCCCCCCCC)CC(O)COCCCCCCCCCC)CC1)CC(O)COCCCCCCCCCC` (stereo not drawn) [Compound B2C2], 0.36. For `CC(C)CCC[C@@H](C)[C@H]1CC[C@H]2[C@@H]3CC=C4C[C@@H](OC(=O)N5CCN(Cc6ccccc6)CCNCCN(Cc6ccccc6)CC5)CC[C@]4(C)[C@H]3CC[C@]12C` [Compound M6ch1], the “Targeted mRNA remain in liver” value in assay [3] (dose 3 mg/kg intravenously) is listed as 0.86.

On to `CCCCCCCCCCOCC(O)CN(CCCN(CCCN(CC(O)COCCCCCCCCCC)CC(O)COCCCCCCCCCC)CC(O)COCCCCCCCCCC)CCCN(CC(O)COCCCCCCCCCC)CC(O)COCCCCCCCCCC` (stereo not drawn) [NsC2], for which, in assay [1], the “Targeted mRNA remain in liver” value was determined as 0.1. Still for that read-out and setting: with `CCCCCCCCCCCCCCCCC(O)CN(CCN(C)CCN(CC(O)CCCCCCCCCCCCCCCC)CC(O)CCCCCCCCCCCCCCCC)CC(O)CCCCCCCCCCCCCCCC` (stereo not drawn) [MdC5] the figure was 0.45; with `CCCCCCCCCCC(O)CN(CCCN(CCCN(CC(O)CCCCCCCCCC)CC(O)CCCCCCCCCC)CC(O)CCCCCCCCCC)CCCN(CC(O)CCCCCCCCCC)CC(O)CCCCCCCCCC` (stereo not drawn) [NsC4], 0.13.
